{"source": "paper PMC11225352", "about": "“A multicenter, randomized, double-blind, placebo-controlled ascending dose study to evaluate the safety, tolerability, pharmacokinetics (PK) and pharmacodynamic (PD) effects of Posiphen in subjects with early Alzheimer’s Disease” (Alzheimer's Research & Therapy, 2024)", "format_in_all_cases": "in vivo, human", "key": {"[1]": {"system": "Aβ38", "test": "SILK analysis of CSF Aβ38 (fractional synthesis rate)", "conditions": "after 21 days", "protocol": "(§1) For biochemical analysis to derive data for SILK, ^13C6-leucine was analyzed in plasma and CSF by mass spectrometry, and Aβ peptides in CSF were analyzed by immunoprecipitation-mass spectrometry (IP-MS) as previously described, by C2N Diagnostics (St Louis, MO). CSF levels of sAPPα, sAPPβ, Aβ38, 40 and 42 were analyzed by the ADCS Biomarker Core using Mesoscale Discovery (MSD) electrochemiluminescent assays (Mesoscale Discovery, Rockville, MD). Levels of Posiphen and its N1 and N8 metabolites in plasma and CSF were measured by Charles River Laboratories (Montreal, CA) by high-performance liquid chromatographic mass spectrometry, with use of deuterated Posiphen (procured by Charles River Laboratories) as an internal standard.\n(§2) For SILK, the fraction of labeled Aβ for Aβ38, 40, and 42 during 36 h after administration of study drug for each subject was calculated, as described. The FSR measures were calculated by fitting a line to the upslope of the CSF Aβ labeling data. It was assumed that the upslope occurred between hours 6–16 h after the start of confinement. […] The percentage of newly synthesized and degraded Aβ was estimated over 36 h by multiplying the […] concentration of Aβ measured at the start of confinement (i.e. at catheter placement; time = 0) by the percentage of Aβ that contains ^13C6-leucine at each time point. […]"}, "[2]": {"system": "Aβ42", "test": "SILK analysis of CSF Aβ42 (fractional synthesis rate)", "conditions": "after 21 days", "protocol": "as §1, §2"}, "[3]": {"system": "APP", "test": "Post hoc comprehensive compartmental modeling of APP production rate from SILK data", "protocol": "For SILK, the fraction of labeled Aβ for Aβ38, 40, and 42 during 36 h after administration of study drug for each subject was calculated, as described. The FSR measures were calculated by fitting a line to the upslope of the CSF Aβ labeling data. It was assumed that the upslope occurred between hours 6–16 h after the start of confinement. FSR for treated and untreated subjects were compared by analysis of variance (ANOVA). The percentage of newly synthesized and degraded Aβ was estimated over 36 h by multiplying the […] concentration of Aβ measured at the start of confinement (i.e. at catheter placement; time = 0) by the percentage of Aβ that contains ^13C6-leucine at each time point. This can be used to estimate the AUC of the drug for decreasing the amount of newly produced Aβ [24]. As a post hoc analysis, the FSR measurement was also performed with different assumptions: the timeframe for measuring the upslope was automatically detected based on the slope of the SILK curve (see supplementary materials for method and code). As an additional post hoc analysis, a newer model for SILK that take into count the multiple compartments and CSF and other spaces involved in APP metabolism was also used to estimate APP production rates, as described below.\nAPP and Aβ production and clearance rates were determined using a recently described comprehensive model. The model accounts for the bi-hourly withdrawal of 6 mL of CSF, which is known to alter the lumbar CSF concentration of Aβ [25]. The model estimates rates of APP production, enzymatic production of Aβ, transport of Aβ from interstitial fluid (ISF) to CSF, enzymatic degradation of Aβ, blood-brain barrier transport of Aβ, as well as CSF mixing throughout the subarachnoid space (SAS) and clearance of CSF from cranial and spinal subarachnoid space (SAS). For the DISCOVER trial, MRI volumetric scans were not available, so CSF volumes (cranial, cisternal and ventricular) were estimated based on the subject’s age using data from the previous study (see Supplementary Materials). […]"}, "[4]": {"system": "Aβ40", "test": "CSF Aβ40 level, screening to day 21 (MSD immunoassay)", "conditions": "ANOVA with age and sex as covariates; p = 0.39", "protocol": "as §1\n(§3) Changes in CSF biomarkers from the screening to confinement (sample at time of placement of catheter) were compared in the treatment and placebo groups by ANOVA, with models that included age, sex and baseline MMSE, and further analysis stratified by treatment dose. A similar approach was taken to analyze changes in MMSE, ADAS-cog and NPI. Data were analyzed using R (version 4.2.2)."}, "[5]": {"test": "Cognitive and behavioral outcomes (ADAS-cog12, MMSE, NPI)", "source_text": "The screening visit included history, examination, review of medical records and medications, vital signs, physical and neurological examination, cognitive testing with the MMSE and Logical Memory test (Wechsler Memory Scale-revised), EKG, blood draw for routine laboratory tests, lumbar puncture and if needed, brain MRI. If eligible, participants underwent a baseline visit, with cognitive assessment using the MMSE and ADAS-cog12, behavioral assessments, Research Satisfaction Survey, safety assessments, and review of concurrent medications and adverse events, and they received a supply of the study drug (or placebo), which they started the day after the baseline visit. A telephone assessment was done at day 14 after baseline, to assess adverse events, concomitant medication changes and remind participants/study partners about the confinement visit. A pre-confinement visit took place 1–3 days before the confinement visit, following treatment for 20 days, and included physical and neurological examination, cognitive and behavioral assessments (see below), safety assessments (including clinical safety labs), and a review of compliance, concurrent medications and adverse events. The study drug or placebo was continued until the day before the confinement visit.\nSafety measures included adverse events, vital signs, EKG and laboratory tests. The Mini-Mental State Examination (MMSE), Alzheimer’s Disease Assessment Scale-cognitive (ADAS-cog12) and Neuropsychiatric Inventory (NPI) were used as cognitive and behavioral outcomes,.\nas §3"}}}
{"compound": "CN1CC[C@]2(C)c3cc(OC(=O)Nc4ccccc4)ccc3N(C)[C@H]12", "note": "[Posiphen]", "values": [{"measurement": "effect on FSR estimates for Aβ38 vs. placebo", "setting": "[1]", "result": "no significant effect"}, {"measurement": "effect on FSR estimates for Aβ42 vs. placebo", "setting": "[2]", "result": "no significant effect"}, {"measurement": "APP production, placebo vs 120 mg per day group", "setting": "[3]; model with pre-drug lumbar CSF concentration as covariate", "result": "showed significance"}, {"measurement": "APP production rate", "setting": "[3]; single 180 mg per day subject", "result": "low"}, {"measurement": "APP production rates", "setting": "[3]; subjects receiving 120 or 180 mg per day, differences not significant by non-parametric analysis", "result": "trended lower"}, {"measurement": "CSF Aβ40, Treatment difference (Posiphen – placebo)", "setting": "[4]", "result": "-1.4 (1.57) p = 0.39 pg/mL"}, {"measurement": "NPI, mean change from baseline to pre-confinement", "setting": "[5]; Posiphen (n = 11), mITT, baseline 8.36 ± 9.52", "result": "-0.45 ± 7.01"}, {"measurement": "MMSE, Pre-confinement", "setting": "[5]; Posiphen (n = 11), mITT, baseline 24.36 ± 2.8", "result": "24.18 ± 2.52"}, {"measurement": "ADAS-Cog12, Pre-confinement", "setting": "[5]; Posiphen (n = 11), mITT, baseline 25.73 ± 8.76", "result": "25.18 ± 5.33"}, {"measurement": "ADAS-cog, MMSE or NPI total scores, change from baseline to pre-confinement visit", "setting": "[5]; Posiphen or placebo groups", "result": "no significant changes"}, {"measurement": "MMSE, Mean change", "setting": "[5]; baseline to pre-confinement, Posiphen (n = 11), placebo 1.14 ± 2.12", "result": "-0.18 ± 2.09"}, {"measurement": "ADAS-Cog12, Mean change", "setting": "[5]; baseline to pre-confinement, Posiphen (n = 11), placebo -1.57 ± 5.19", "result": "-0.55 ± 6.04"}, {"measurement": "ADAS-cog change, t", "setting": "[5]; contrast 60 mg – placebo, multiple linear regression (age, sex, APOE genotype, baseline score, arm), p 0.68", "result": 0.42}, {"measurement": "MMSE change, t", "setting": "[5]; contrast 60 mg – placebo, multiple linear regression, p 0.006", "result": -3.32}, {"measurement": "NPI change, t", "setting": "[5]; contrast 60 mg – placebo, multiple linear regression, p 0.51", "result": 0.68}, {"measurement": "NPI change, t", "setting": "[5]; contrast 120 mg - placebo, multiple linear regression, p 0.02", "result": 2.73}, {"measurement": "MMSE change, t", "setting": "[5]; contrast 120 mg - placebo, multiple linear regression, p 0.24", "result": 1.2}, {"measurement": "ADAS-cog change, t", "setting": "[5]; contrast 120 mg - placebo, multiple linear regression, p 0.30", "result": 1.1}, {"measurement": "ADAS-cog change, t", "setting": "[5]; contrast 180 mg - placebo, multiple linear regression, p 0.77", "result": "029"}, {"measurement": "NPI change, t", "setting": "[5]; contrast 180 mg - placebo, multiple linear regression, p 0.91", "result": 0.12}, {"measurement": "NPI, Treatment difference (Posiphen – placebo)", "setting": "[5]; mITT, p = 0.11", "result": "7.10 ± 4.07", "unit": "p = 0.11"}, {"measurement": "ADAS-Cog12, Treatment difference (Posiphen – placebo)", "setting": "[5]; mITT, p = 0.32", "result": "3.00 ± 2.94", "unit": "p = 0.32"}, {"measurement": "MMSE, Treatment difference (Posiphen – placebo)", "setting": "[5]; mITT, p= 0.23", "result": "-1.6 ± 1.28", "unit": "p= 0.23"}]}
